Experimental data as given in US20070160725A1, “Use of extracts and compounds of allium-genus plants as preservatives in the food and agri-food industries” (MOUSALA, S., L., priority 2004, published 2007).

Tests used:
[1] = test system: Bacillus cereus, CECT 1178; experiment: agar diffusion, inhibition halo; format: cell-based
Protocol: (§1) In order to evaluate the antimicrobial activity the agar diffusion technique with cellulose discs of 6 mm in diameter impregnated with the different active ingredient testing doses was used.
(§2) Antibacterial capacity was assessed against suspensions of 10^6 cells/ml, prepared from pure young cultures of each one of the strains to be tested. The culture medium used was Müller-Hinton medium (Merck).
(§3) After incubating the culture dishes inoculated with the different organisms at the corresponding temperatures, the microbial inhibition halos that appeared were measured, and said measurement includes the 6 mm diameter of the cellulose discs.

[2] = test system: Bacillus megaterium, ATCC 33085; experiment: agar diffusion, inhibition halo; format: cell-based
Protocol: as §1, §2, §3

[3] = test system: Escherichia coli, CECT 515; experiment: agar diffusion, inhibition halo; format: cell-based
Protocol: as §1, §2, §3

[4] = test system: Listeria monocytogenes, ATCC 15313; experiment: agar diffusion, inhibition halo; format: cell-based
Protocol: as §1, §2, §3

[5] = test system: Micrococcus luteus, isolated from a spiced sausage; experiment: agar diffusion, inhibition halo; format: cell-based
Protocol: as §1, §2, §3

Salmonella = experiment: microbiological quality of treated hamburgers and fresh sausage: Salmonella study
Protocol: The tests were conducted on meat products such as hamburgers and fresh sausage at different doses, with and without the usual preservatives (sulfites).
Each sample is prepared in quintuplicate and microbiological quality control over time is conducted, a triplicate of each sample being performed.
The systematic testing used consisted of three steps: • a) Pre-enrichment in non-selective liquid medium. • b) Enrichment in selective liquid medium. • c) Differential isolation on selective solid means. a) Non-Selective Pre-Enrichment
The medium of choice is buffered peptone water.
25 g of the product to be analyzed are aseptically weighed and diluted in 225 mL of buffered peptone water to obtain a 1:10 dilution. It is mixed well and taken to be incubated at 37° C. for 16-20 hours.
The pre-enrichment culture is stirred and 10 mL thereof are taken with a sterile pipette, seeding it onto 100 mL of selenite-cysteine broth (Merck), incubating it at 37° C. for 18-24 hours.
From the culture obtained in the selective liquid medium, selenite-cysteine broth, seeding is performed on the second dish, in duplicate and without overloading the loop, on xylose lysine deoxycholate (XLD, Merck) agar, Rambach agar (Merck), and SS agar (Merck).
All the seeded dishes are incubated in an oven at 37° C. for 24-48 hours.
The test is positive when typical colonies are detected in at least two of the four mediums, which are confirmed with supplementary biochemical tests.
Two different raw meat products (sausages and hamburgers) treated with different allicin doses are prepared. • The used testing doses were: 25, 50 and 100 ppm.
Five samples of each product (hamburger and sausage) are prepared, each one of them being analyzed in triplicate.
The microbiological parameters analyzed were as follows: • Total mesophilic aerobes • Coliforms • Escherichia coli • Salmonella (presence/absence in 25 g) • Said parameters were analyzed at different times: • 0 days • 4 days • 7 days • The sample references resulted as follows: […]

`C=CCS[S+]([O-])CC=C` (stereo not shown) [Allicin, allyl allylthiosulfinate] gave an inhibition halo diameter ([1]; 25 ppm) of 22 mm, an inhibition halo diameter ([1]; 50 ppm) of 29 mm and an inhibition halo diameter ([1]; 100 ppm) of 35 mm. The inhibition halo diameter ([2]; 25 ppm) was 23 mm, the inhibition halo diameter ([2]; 50 ppm) was 27 mm and the inhibition halo diameter ([2]; 100 ppm) was 34 mm. For the same compound, the inhibition halo diameter ([3]; 25 ppm) was 14 mm, the inhibition halo diameter ([3]; 50 ppm) was 17 mm and the inhibition halo diameter ([3]; 100 ppm) was 21 mm. For the same compound, the inhibition halo diameter ([4]; 25 ppm) was 18 mm, the inhibition halo diameter ([4]; 50 ppm) was 24 mm and the inhibition halo diameter ([4]; 100 ppm) was 30 mm. The inhibition halo diameter ([5]; 25 ppm) was 19 mm, the inhibition halo diameter ([5]; 50 ppm) was 25 mm and the inhibition halo diameter ([5]; 100 ppm) was 32 mm. The Salmonella growth (Salmonella; allicin doses of 50 and 100 ppm) was “able to inhibit Salmonella growth”, the “Salmonella (in 25 g)” value (Salmonella; hamburger, 25 ppm of allicin (H-1), t = 0 days) was “presence” and the “Salmonella (in 25 g)” value (Salmonella; hamburger, 25 ppm of allicin (H-1), t = 4 days) was “presence”. The “Salmonella (in 25 g)” value (Salmonella; hamburger, 50 ppm of allicin (H-2), t = 0 days) was “presence”, the “Salmonella (in 25 g)” value (Salmonella; hamburger, 50 ppm of allicin (H-2), t = 4 days) was “presence” and the “Salmonella (in 25 g)” value (Salmonella; hamburger, 100 ppm of allicin (H-3), t = 0 days) was “presence”. For the same compound, the “Salmonella (in 25 g)” value (Salmonella; hamburger, 100 ppm of allicin (H-3), t = 4 days) was “presence”, the “Salmonella (in 25 g)” value (Salmonella; sausage, 25 ppm of allicin (S-1), t = 0 days) was “absence” and the “Salmonella (in 25 g)” value (Salmonella; sausage, 25 ppm of allicin (S-1), t = 4 days) was “presence”. For the same compound, the “Salmonella (in 25 g)” value (Salmonella; sausage, 50 ppm of allicin (S-2), t = 0 days) was “absence”, the “Salmonella (in 25 g)” value (Salmonella; sausage, 50 ppm of allicin (S-2), t = 4 days) was “presence” and the “Salmonella (in 25 g)” value (Salmonella; sausage, 100 ppm of allicin (S-3), t = 0 days) was “absence”. For the same compound, the “Salmonella (in 25 g)” value (Salmonella; sausage, 100 ppm of allicin (S-3), t = 4 days) was “presence”.
